Results taken from patent US20250177398A1, “CARBONIC ANHYDRASE ENZYMES FOR REGULATING MAST CELL HEMATOPOIESIS AND TYPE 2 INFLAMMATION” (RUTGERS, THE STATE UNIVERSITY OF NEW JERSEY, priority 2015, published 2025).

How the values were obtained:
Format in all cases: in vivo, mouse
[1] = system: Aspergillus fumigatus-induced allergic airway inflammation; assay: Aspergillus fumigatus extract-induced allergic asthma; conditions: mice challenged intranasally with A. fumigatus extract for 3 weeks, MZ (FIG. 5)
Protocol: Aspergillus-induced allergic asthma. Mice were challenged with Aspergillus fumigatus allergic extract as previously described (Mathias, C. B., et al., J Immunol 182, 2416-2424 (2009)). Briefly, mice were challenged (intranasally) 3 times a week for 3 weeks with 50 μl of aqueous Aspergillus fumigatus Allergenic Extract (Greer laboratories: item # M3). After 3 weeks mice were sacrificed and BAL and lungs were processed as previously described (Espinosa, V., et al., PLOS Pathog 10, e1003940 (2014)).

[2] = system: Aspergillus fumigatus; assay: Aspergillus fumigatus (FLARE conidia) lung infection; conditions: A. fumigatus-infected mice, 2-3 mg MZ i.p. daily, 72 hours post-infection (FIGS. 3H-3J)
Protocol: A. fumigatus strain Af293 was grown on glucose minimal media (GMM) agar plates for 3 days or Sabouraud dextrose agar (SDA) for 7-10 days at 37° C., respectively. Conidia were harvested by adding 0.01% Tween 80 to plates and gently scraping conidia from the plates using a cell scraper. Conidia were then filtered through sterile Miracloth, were washed and resuspended in phosphate buffered saline (PBS), and counted on a hemocytometer. FLARE conidia were prepared as previously described (Espinosa, et al., 2014. PLOS Pathog 10:e1003940). Mice were challenged with 5×10^7 A. fumigatus conidia intratracheally (i.t.) as described previously (Espinosa, et al., 2014. PLOS Pathog 10:e1003940). Mice were treated with vehicle (1:5 DMSO to PBS) or 2-3 mg of MZ i.p. daily and sacrificed 72 hours post-infection. Bronchoalveolar lavage (BAL) fluid was collected by washing the lungs with 2 mL of PBS containing 0.05M EDTA. After collection of the BAL fluid, lung samples were minced in RPMI containing 100 units/mL of collagenase (Gibco) and incubated at 37° C. for 60 minutes, disrupted and filtered. Subsequently, red blood cells were lysed using a Tris ammonium chloride solution. Analysis of neutrophils was conducted using a panel of cell surface markers: CD45, CD11b, and Ly6G as previously described (Espinosa, et al., 2014. PLOS Pathog 10:e1003940). […]

[3] = system: food allergy-induced mast cell responses; assay: Food allergy-like disease (OVA sensitization and challenge); conditions: OVA sensitized and challenged mice
Protocol: RNA from sections of small intestine was isolated by homogenization in TRIzol (Invitrogen) followed by phenol-chloroform extraction and isopropanol precipitation. cDNA was generated per standard protocol with Superscript reverse transcriptase (Invitrogen) and used as input for real-time PCR. Real-time data were analyzed using the ΔΔCT method using SYBR Green chemistry (Applied Biosystems) with β-actin serving as the endogenous housekeeping gene. All reactions were run on an ABI 7500 Fast Real-Time PCR System (Applied Biosystems). Samples were normalized to naïve controls. The following QuantiTech primer assays from Qiagen were used: Mcpt1 (QT00157864), IL-4 (QT00160678), IL-9 (QT00107555), Arg1 (QT00134288), […] (QT00254359), Car1 (QT01058113) and Car2 (QT00494592). Single cell suspensions were made from mesenteric, or skin draining lymph nodes. Lymph node cells were cultured in RPMI complete medium and treated with and without anti-CD3 (BD Pharmingen: clone 145-2C11) and anti-CD28 antibodies (BD Pharmingen: clone 37.51) for 72 hours. Standard sandwich ELISA (eBioscience) was performed to measure IL-4 (clones 11B11 and BVD6-24G2), IL-5 (clones TRFK5 and TRFK4) and IL-13 (clones eBio13A and eBio1316H) levels in the cell-free supernatants. Serum quantities of Mcpt1 and IgE were measured by commercial sandwich ELISA kits (BD Biosciences, eBioscience). […]

Q: With CC(=O)/N=c1/sc(S(N)(=O)=O)nn1C [MZ, methazolamide] as the compound, how does the “eosinophilic airway inflammation (eosinophils in BAL and lung)” value [1] read?
A: Its value is “significantly reduced”.

Q: And the “pulmonary mast cell responses” value [1]?
A: The value was “significantly reduced”.

Q: What about the fungal clearance [2] of the same compound?
A: The fungal clearance was “increased”.

Q: And the neutrophil responses [2]?
A: Its neutrophil responses is “increased”.

Q: And the “mast cell responses (serum Mcpt1, intestinal mcpt1 expression, intestinal mast cells by histology)” value ([3]; 2-3 mg MZ i.p. daily (FIG. 4A-D))?
A: Its value is “significantly decreased”.

Q: And the “serum IgE levels” value ([3]; 2-3 mg MZ i.p. daily (FIG. 4E))?
A: Its value is “significantly increased”.
